The nature of data set [1]: Maximum tolerated dose in mice. To be noted: for MTD / MTD at 30 days: mouse, in vivo, iv. As to the method:
Formulations containing 15-O-(3′-hydroxy-3′-isopropyl-4′-methylpentanoyl)bruceolide, 15-(3-isopropyl-4-methyl-2-pentenoyl)-bruceolide, and, for comparative purposes, bruceantin, or peninsularinone were prepared by solubilizing each compound in up to 100 mg/mL of ethanol. These solutions were diluted 1:1 with a stabilizer (Cremophor/propylene glycol). The solutions were then diluted in saline (1:10 minimum).
The maximum tolerated dose (MTD) was determined by a two-stage experiment. In the first stage, between 1 and 10 mg/mL of the formulation was prepared as described above. Next, 0.25 mL of the formulation was injected intravenously into one 20 gram mouse (0.75 mg/mouse). If the animal died within 30 days of injection, a series of subsequent 2-fold dilutions were administered to individual mice until an MTD was defined. […] The second stage of the study involved increasing the number of mice per dose to four, and retesting four dilutions that bracket the MTD from the individual mouse study. The four dilutions were the MTD, a dosage twice the MTD, a dosage ½ the MTD, and a dosage ¼ the MTD.

Another data set deals with HCT-116 cells. In words: Clonogenic assay, HCT-116. To be noted: colonies at 7 days. Format: cell-based, human. As to the method:
A clonogenic assay was performed using HCT-116 cells. Specifically, HCT-116 cells were seeded at 200 to 20,000 cells in 60 mm dishes. […] At either 2 hours or 24 hours following drug administration, the drug-containing media was removed, and fresh media without drug was added. In addition, one group of cells was subjected to continuous drug exposure for the entire incubation period. The dishes were incubated for 7 days (at 37° C. and 5% CO2), media was removed, and the colonies were stained with methylene blue. Colonies containing 50 cells or more were counted. The results were normalized to an untreated control. Plating efficiency for the untreated cells was about 90%. Repeat experiments also were carried out to define the cell survival range between 1 (100%) and 10^−3 (0.1%) survival. A survival rate of 10^−1 was chosen as the minimal level that would be required in vivo to achieve therapeutic efficacy against HCT-116 cells in tumor-bearing mice. The clonogenic dose response to 15-O-(3′-hydroxy-3′-isopropyl-4′-methylpentanoyl)bruceolide is illustrated in FIG. 4. The clonogenic dose response to 15-(3-isopropyl-4-methyl-2-pentenoyl)-bruceolide is illustrated in FIG. 5.

Data set [2] has as its system CCRF-CEM (human leukemia). Description: Disk diffusion assay, zone of inhibition, CCRF-CEM. Format: cell-based. The settings on record: 1 mg/mL. As to the method:
(§1) A disk diffusion assay was performed to define the differential cell killing ability of 15-O-(3′-hydroxy-3′-isopropyl-4′-methylpentanoyl)bruceolide. Seven cell types were assayed: L1210 (ATCC CCL-219) (murine leukemia), CCRF-CEM (ATCC CCL-119) (human leukemia), Colon 38 (murine colon adenocarcinoma), HCT116 (ATCC CCL-247) (human colorectal carcinoma), H125 (human lung carcinoma). The murine and human granulocyte/macrophage progenitor cell line (CFU-GM), served as controls.
(§2) Colon 38 cells (about 1 gram) were cut into small fragments in 15 mL of Hank's Balanced Salt Solution (HBSS) over a 100-mesh sieve and gently forced through by the scissors with HBSS constantly perfusing the sieve. The resulting material was then drawn into and out of a 5 mL syringe without a needle to further disperse the cell clumps. The cell solution was diluted and plated in 0.3% agarose in DMEM plus 10% heat-inactivated Bovine Calf Serum (BCS). For plating of all of the cell types (except controls), the 60 mm plates were first prepared with a hard agar bottom layer (0.6% agar in RPMI-1640 plus 15% BCS).
(§3) A 15 μl sample of each compound was dropped onto a 6.5 mm disk (Baxter filter disks). The disks were allowed to dry overnight and then placed close to the edge of a petri dish. Depending upon the cell type, the dishes were incubated for 7 to 10 days, and examined by an inverted stereo-microscope (10×) for measurement of the zone of inhibition. The zone of inhibition was measured from the edge of the filter disk to the beginning of normal-sized colony formation. The diameter of the filter disk, 6.5 mm, was arbitrarily taken as a zone of 200 units. Compounds that were selective for killing solid tumors, as compared to leukemia or normal cells (“solid tumor selective”) were defined as those compounds which produced a difference in zones between solid tumor cells and either normal or leukemia cells of at least 250 units. The results of this analysis are set forth in Table 4, which illustrates the relative diameters of the zones of inhibition by various drugs on the growth of the respective cell types at various drug dilutions.

In another data set the test system is human CFU-GM. The format is cell-based. To be noted: 1 mg/mL. As to the method: as §1
(§4) For CFU-GM cells, the femoral marrow of BD2F1 mice was flushed with MEM alpha (2 mL per femur). The cells were passed through an 18 gauge needle twice and the monodispersed suspension was counted. A total of 1.5×10^6 cells were plated in 3 mL of 0.3% agar with the addition of 10% L cell conditioned media, which provided colony stimulating factor, in MEM-alpha plus 10% BCS. For human CFU-GM, the cells were obtained from Poietic Technologies, Inc. (Gaithersburg, Md.) and washed twice with PBS before being titered and added to the agar mixture. The same cell number, culture conditions, and conditioning factors used with respect to the murine CFU-GM cells were used with the human cells, except that the cultures were assessed after 10 days of incubation.
as §3

Another data set has as its system L1210 (murine leukemia). In words: Disk diffusion assay, zone of inhibition, L1210. The settings on record: 1 mg/mL. Format: cell-based. As to the method:
as §1, §2, §3

The subject of another data set is murine CFU-GM. Description: Disk diffusion assay, zone of inhibition, murine CFU-GM. To be noted: 1 mg/mL. Format: cell-based. As to the method:
as §1, §4, §3

For data set [3], the system named is H125 (human lung carcinoma). In words: Disk diffusion assay, zone of inhibition, H125. The format is cell-based. The settings on record: 1 mg/mL. As to the method:
as §1, §2
HCT116 and H125 cells were maintained in cell culture, and were removed from culture by a trypsin-collagenase-DNAase cocktail. The plating efficiencies of each cell type was sufficiently high that 30,000 cells in 3 mL produced the desired number of colonies (i.e., over 10,000 per plate) in 60 mm plates. This soft agar top layer (0.3% with the serum and media as above) plus the titrated tumor cells were poured into the plates and allowed to solidify.
as §3

Where [4] appears, read: intravenous, first stage, one mouse per dose.
[5] abbreviates: intravenous, second stage, four mice per dose.
Setting [6] is: maximum tolerated dose, Dose - 1 Mouse, first stage, one mouse per dose.
Setting [7] is: maximum tolerated dose, Dose - 4 Mice, second stage, four mice per dose.
Setting [8] is: no dilution, 15 μl on disk, 6.5 mm = 200 units.

“And” between values parts separate entries of the source, which are not always exact repeats. Identical values can stand only once. Like-named read-outs stand apart in the source and are kept apart here. Some results are limits rather than exact numbers.

Turning to `COC(=O)[C@@]12OC[C@@]34C1[C@@H](OC(=O)CC(O)(C(C)C)C(C)C)C(=O)O[C@@H]3C[C@H]1C(C)=C(O)C(=O)C[C@]1(C)[C@H]4[C@@H](O)[C@@H]2O` (stereo partly shown) [15-O-(3′-hydroxy-3′-isopropyl-4′-methylpentanoyl)bruceolide], the “mice survived the duration of the experiment” value in data set [1] (dose of either 1.5 or 0.75 mg/mouse, intravenous (FIG. 6)) was determined as 100%. In data set [1] (setting [4]), the “maximum tolerated dose, Dose - 1 Mouse” value was 3.2 mg/mouse. Also, in data set [1] (setting [5]), the “maximum tolerated dose, Dose - 4 Mice” value came to 1.5 mg/mouse. Further, the MTD in data set [1] (MTD, mice) is 60 to 65 mg/kg/day; in data set [1] (setting [6]) it was 109 mg/kg; in data set [1] (setting [7]), 60 mg/kg. The “Concentration Required for 10^−1 Survival Fraction” value in the data set with HCT-116 cells (HCT-116, 2 Hour Exposure) is >10 μg/mL; with HCT-116 cells (HCT-116, 24 Hour Exposure), 1 × 10^0 μg/mL; in the data set with HCT-116 cells (HCT-116, Continuous Exposure) it was 7 × 10^−3 μg/mL. In addition, the “zone of inhibition, CEM” value in data set [2] (dilution 1/10) was 650 units and 700 units; in data set [2] (dilution 1/100), 100 units and 150 units. Also, the entries for the “zone of inhibition, human CFU-GM” value in the data set on human CFU-GM (dilution 1/10) and in the data set on human CFU-GM (dilution 1/100) were 900 units and 600 units, respectively. Besides, the “zone of inhibition, L1210” value with L1210 (murine leukemia) (dilution 1/10) came out at 550 units; in the data set with L1210 (murine leukemia) (dilution 1/100), 200 units; in the data set on L1210 (murine leukemia) (dilution 1/400), 0 units; in the data set with L1210 (murine leukemia) (setting [8]) it was 1000 units. In addition, the “zone of inhibition, murine CFU-GM” value in the data set with murine CFU-GM (dilution 1/10) is 50 units; in the data set on murine CFU-GM (dilution 1/100), 300 units and 200 units; in the data set on murine CFU-GM (dilution 1/400), 100 units; in the data set on murine CFU-GM (dilution 1/1000), 0 units. Moreover, the “zone of inhibition, H-125 M” value in data set [3] (dilution 1/1000) was 0 units; in data set [3] (setting [8]) it was >1000 units.

With `COC(=O)[C@@]12OC[C@@]34C1[C@@H](OC(=O)C=C(C(C)C)C(C)C)C(=O)O[C@@H]3C[C@H]1C(C)=C(O)C(=O)C[C@]1(C)[C@H]4[C@@H](O)[C@@H]2O` (stereo partly shown) [15-O-(3′-isopropyl-4′-methyl-2′-pentenoyl)-bruceolide], in data set [1] (dose of 0.1, 0.075, 0.05, or 0.025 mg/mouse, intravenous), the “mice survived the duration of the experiment” value was 100%. In addition, the “maximum tolerated dose, Dose - 1 Mouse” value in data set [1] (setting [4]) was determined as 0.05 mg/mouse. Besides, in data set [1] (setting [5]), the “maximum tolerated dose, Dose - 4 Mice” value worked out at 0.25 mg/mouse. Besides, the figures for the MTD at 30 days in data set [1] (setting [6]) and in data set [1] (setting [7]) were 2.9 mg/kg and 4 mg/kg, respectively. Moreover, the “Concentration Required for 10^−1 Survival Fraction” value in the data set with HCT-116 cells (HCT-116, 2 Hour Exposure) is reported as >10 μg/mL; in the data set on HCT-116 cells (HCT-116, 24 Hour Exposure), 1.5 × 10^0 μg/mL; with HCT-116 cells (HCT-116, Continuous Exposure) it was 1.5 × 10^−3 μg/mL. The “zone of inhibition, CEM” value is listed as 800 units in data set [2] (dilution 1/10) and 400 units in data set [2] (dilution 1/100). The results for the “zone of inhibition, human CFU-GM” value with human CFU-GM (dilution 1/10) and with human CFU-GM (dilution 1/100) were >1000 units and 550 units, respectively. In addition, the “zone of inhibition, L1210” value with L1210 (murine leukemia) (dilution 1/10) is 1000 units; with L1210 (murine leukemia) (dilution 1/100), 650 units and 600 units; in the data set with L1210 (murine leukemia) (dilution 1/1000), 150 units; in the data set on L1210 (murine leukemia) (setting [8]), >1000 units. For the same compound, the “zone of inhibition, murine CFU-GM” value with murine CFU-GM (dilution 1/10) was 650 units; in the data set on murine CFU-GM (dilution 1/100) it was 350 units and 600 units; in the data set on murine CFU-GM (dilution 1/1000) it was 0 units. The “zone of inhibition, H-125 M” value in data set [3] (dilution 1/10) is 1100 units; in data set [3] (dilution 1/100) it was 500 units; in data set [3] (dilution 1/1000) it was 100 units; in data set [3] (setting [8]), >1000 units.

(Values after US20060281807A1, “Quassinoid compositions for the treatment of cancer and other proliferative diseases” (Tapestry Pharmaceuticals, Inc., priority 2005, published 2006).)
